Test results reported in US9561230B2, “Aryl-substituted tricyclic sulfonamides as methionyl aminopeptidase 2 modulators” (Zafgen, Inc., priority 2011, dated 2017).

Target: T1, recombinant human MetAP2 (Homo sapiens, UniProt P50579)
T1 construct: made in house; host or cells: Sf9 insect cells
Test: Inhibition of recombinant human MetAP2 activity (MAS substrate, amino acid oxidase/Amplex red fluorescence)
Format: biochemical
Settings: manganese enzyme, 0.75 mM MAS substrate, 30 minutes at 25° C., pH 7.5, 1% DMSO; read-out: Activity (IC50 class, MetAP2 inhibition)
Description: Compounds are tested for their capacity to inhibit recombinant human MetAP2 activity using the following assay.
Human recombinant MetAP2 expressed in Sf9 cells followed by affinity purification and EDTA treatment to remove endogenous active site cation was dialysed against MnCl2 to produce the manganese enzyme used in the assay. The assay was carried out for 30 minutes at 25° C. in 50 mM HEPES buffer containing 100 mM NaCl, pH 7.5 the presence of 0.75 mM Methionine-Alanine-Serine (MAS) substrate and 50 μg/ml amino acid oxidase using a dilution of purified MetAP2 giving>3-fold signal:noise. Cleavage of the substrate by MetAP2 and oxidation of free methionine by amino acid oxidase was detected and quantified using fluorescence generated by Amplex red (10-acetyl-3,7-dihydroxyphenoxazine) in combination with horseradish peroxidase which detects H2O2 released during the oxidation step. The fluorescent signal was detected using a multiwell fluorimeter. Compounds were diluted in DMSO prior to addition to assay buffer, the final DMSO concentration in the assay being 1%.
The IC50 is defined as the concentration at which a given compound achieves 50% inhibition of control. IC50 values are calculated using the XLfit software package (version 2.0.5).

T1 sequence (P50579 whole entry): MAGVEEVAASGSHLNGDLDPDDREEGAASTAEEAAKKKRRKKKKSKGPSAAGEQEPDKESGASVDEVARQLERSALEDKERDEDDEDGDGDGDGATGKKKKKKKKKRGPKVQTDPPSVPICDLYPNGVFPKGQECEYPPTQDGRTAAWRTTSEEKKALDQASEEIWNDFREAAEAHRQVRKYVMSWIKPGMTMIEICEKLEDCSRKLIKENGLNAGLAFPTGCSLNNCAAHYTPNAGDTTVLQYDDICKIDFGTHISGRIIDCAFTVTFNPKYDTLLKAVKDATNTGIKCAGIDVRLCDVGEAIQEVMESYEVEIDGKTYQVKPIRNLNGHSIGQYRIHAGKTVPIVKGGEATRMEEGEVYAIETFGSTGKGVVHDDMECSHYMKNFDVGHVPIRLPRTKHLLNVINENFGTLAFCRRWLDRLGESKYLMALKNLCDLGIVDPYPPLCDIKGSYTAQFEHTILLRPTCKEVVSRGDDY

Structure (SMILES)	IC50 [nM]
O=C(O)c1c(NS(=O)(=O)c2ccccc2)ccc2c1cc1n2CCC1 [7-Benzenesulfonylamino-2,3-dihydro-1H-pyrrolo[1,2-a]indole-8-carboxylic acid]	> 500
CCN(CC)C/C=C\c1cc(F)ccc1S(=O)(=O)Nc1ccc2c(c1C(=O)O)OC[C@H]1CCN21 [(R)-6-[2-((Z)-3-Diethylaminoprop-1-enyl)-4-fluorobenzenesulfonylamino]-1,2,2a,3-tetrahydro-4-oxa-8b-azacyclobuta[a]naphthalene-5-carboxylic acid]	> 500
CCN(CC)C/C=C\c1cc(F)ccc1S(=O)(=O)Nc1ccc2c(nc3n2CCC3)c1C(=O)O [6-[2-((Z)-3-Diethylaminoprop-1-enyl)-4-fluorobenzenesulfonylamino]-2,3-dihydro-1H-benzo[d]pyrrolo[1,2-a]imidazole-5-carboxylic acid]	> 500
CCN(CC)C/C=C\c1cc(F)ccc1S(=O)(=O)Nc1ccc2c(c1C(=O)O)OC[C@H]1CCCN21 [(R)-7-[2-((Z)-3-Diethylaminoprop-1-enyl)-4-fluorobenzenesulfonyl-amino]-2,3,3a,4-tetrahydro-1H-benzo[b]pyrrolo[1,2-d][1,4]oxazine-6-carboxylic acid]	50 to 500
CCN(CC)C/C=C\c1cc(F)ccc1S(=O)(=O)Nc1ccc2c(c1C(=O)O)CC1CCCN21 (centres unmarked) [7-[2-((Z)-3-Diethylaminoprop-1-enyl)-4-fluorobenzenesulfonylamino]-2,3,9,9a-tetrahydro-1H-pyrrolo[1,2-a]indole-8-carboxylic acid]	50 to 500

The remaining lines, values ahead:

IC50 [nM]	Structure (SMILES)
50 to 500	CCN(CC)C/C=C\c1cc(F)ccc1S(=O)(=O)Nc1ccc2c(c1C(=O)O)OC[C@@H]1CCCN21 [(S)-7-[2-((Z)-3-Diethylaminoprop-1-enyl)-4-fluorobenzenesulfonyl-amino]-2,3,3a,4-tetrahydro-1H-benzo[b]pyrrolo[1,2-d][1,4]oxazine-6-carboxylic acid]
50 to 500	CCN(CC)C/C=C\c1cc(F)ccc1S(=O)(=O)Nc1ccc2c(c1C(=O)O)CCC1CCCN21 (centres unmarked) [7-[2-((Z)-3-Diethylaminoprop-1-enyl)-4-fluorobenzenesulfonylamino]-1,2,3,3a,4,5-hexahydropyrrolo[1,2-a]quinoline-6-carboxylic acid]
< 50	CCN(CC)C/C=C\c1cc(F)ccc1S(=O)(=O)Nc1ccc2c(cc3n2CCC3)c1C(=O)O [7-[2-((Z)-3-Diethylaminoprop-1-enyl)-4-fluorobenzenesulfonylamino]-2,3-dihydro-1H-pyrrolo[1,2-a]indole-8-carboxylic acid]
